This passage reports kinact/KI, CC50 and EC50 results from US6872745B2, “Antipicornaviral compounds and compositions, their pharmaceutical uses, and materials for their synthesis” (Agouron Pharmaceuticals, Inc., priority 2000, dated 2005).

Each structure is given as a SMILES string.

Data set [1] deals with T1, rhinovirus 3C protease, serotype 14 (Human rhinovirus 14, UniProt P03303).
T1 construct: Recombinant rhinovirus 3C proteases; made in house
The experiment in a line: Inhibition of rhinovirus 3C protease (FRET assay, enzyme start). The class given is biochemical. Conditions: HRV-14 3C protease, progress curves, read-out: Kobs/I. On the procedure:
Stock solutions (50 mM, in DMSO) of various compounds were prepared; dilutions were in the same solvent. Recombinant rhinovirus 3C proteases (see Birch et al., “Purification of recombinant human rhinovirus 14 3C protease expressed in Escherichia coli,” Protein Expr. Pur. (1995), vol. 6(5), 609-618) from serotypes 14, 16, and 2 were prepared by the following standard chromatographic procedures: (1) ion exchange using Q Sepharose Fast Flow from Pharmacia; (2) affinity chromatography using Affi-Gel Blue from Biorad; and (3) sizing using Sephadex G-100 from Pharmacia. Each assay sample contained 2% DMSO, 50 mM tris pH 7.6, 1 mM EDTA, a test compound at the indicated concentration, approximately 1 μM substrate, and 50-100 nM protease. The kobs/I values were obtained from reactions initiated by addition of enzyme rather than substrate. RVP activity was measured in the fluorescence resonance energy transfer assay. The substrate was (N-terminal) DABCYL-(Gly-Arg-Ala-Val-Phe-Gln-Gly-Pro-Val-Gly)-EDANS. In the uncleaved peptide, the EDANS fluorescence was quenched by the proximal DABCYL moiety. When the peptide was cleaved, the quenching was relieved, and activity was measured as an increase in fluorescence signal. The tabulated data in the column designated kobs/[I] were measured from progress curves in enzyme start experiments.

Data set [2] can be described thus: Cytotoxicity in mock-infected cells of the antirhinoviral assay (XTT). As to conditions: human, H1-HeLa cells, table line HRV-14. It counts as cell-based. On the procedure:
(§1) In this cell protection assay, the ability of compounds to protect cells against HRV infection was measured by the XTT dye reduction method, which is described in Weislow et al., J. Natl. Cancer Inst. (1989), vol. 81, 577-586. H1-HeLa cells were infected with HRV-14 at a multiplicity of infection (m.o.i.) of 0.13 (virus particles/cell) or mock-infected with medium only. Infected or mock-infected cells were resuspended at 8×10^5 cells per ml, and incubated with appropriate concentrations of the compounds to be tested. Two days later, XTT/PMS was added to test plates and the amount of formazan produced was quantified spectrophotometrically at 450/650 nm. The EC50 value was calculated as the concentration of compound that increased the percentage of formazan production in compound-treated, virus-infected cells to 50% of that produced by compound-free, mock-infected cells. The 50% cytotoxic dose (CC50) was calculated as the concentration of compound that decreased the percentage of formazan produced in compound-treated, mock-infected cells to 50% of that produced by compound-free, mock-infected cells. The therapeutic index (TI) was calculated by dividing the CC50 value by the EC50 value.
(§2) All strains of human rhinovirus (HRV) for use in this assay were purchased from American Type Culture Collection (ATCC), except for HRV serotype-14 (produced from the infectious cDNA clone constructed by Dr. Robert Rueckert, Institute for Molecular Virology, University of Wisconsin, Madison, Wis.). HRV stocks were propagated and viral assays were performed in H1-HeLa cells (ATCC). Cells were grown in minimal essential medium with 10% fetal bovine serum, available from Life Technologies (Gaithersburg, Md.).
A general note: Tetrazolium dyes change colour on reduction, which living cells bring about.

In another data set the test system is HRV-14. The experiment in a line: Antirhinoviral H1-HeLa cell culture assay (XTT cell protection). The class given is cell-based, human rhinovirus. As to conditions: Rhinovirus B, HRV14, H1-HeLa, HRV-14, H1-HeLa cells. On the procedure:
as §1, §2

T1 sequence (P03303 1538-1719): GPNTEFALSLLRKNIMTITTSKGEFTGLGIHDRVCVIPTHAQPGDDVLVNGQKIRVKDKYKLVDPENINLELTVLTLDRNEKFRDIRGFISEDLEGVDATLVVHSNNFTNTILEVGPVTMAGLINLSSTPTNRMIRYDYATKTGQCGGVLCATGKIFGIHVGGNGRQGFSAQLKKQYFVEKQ

On to `CCOC(=O)/C=C/[C@H](CCC(N)=O)NC(=O)[C@H](Cc1ccccc1)NC(=O)c1ccc(-c2cccc(Cl)c2Cl)[nH]1` [Compound 1], for which the kinact/KI in data set [1] came to 20300 M⁻¹ s⁻¹. Moreover, the CC50 at 2 days in data set [2] was > 10000 nM. Moreover, a half-maximal response in the data set on HRV-14 (EC50) required 202 nM.

As to `CCOC(=O)/C=C/[C@H](CCC(N)=O)NC(=O)[C@H](Cc1ccccc1)NC(=O)c1ccc(-c2ccccc2C(F)(F)F)[nH]1` [Compound 2, 6-Carbamoyl-4S-{3-phenyl-2S-[(5-(2-trifluoromethyl-phenyl)-1H-pyrrole-2-carbonyl)-amino]-propionylamino}-hex-2(trans)-enoic acid ethyl ester], the kinact/KI in data set [1] came out at 32400 M⁻¹ s⁻¹. Also, in data set [2], the CC50 at 2 days is > 10000 nM. For the same compound, in the data set with HRV-14, the EC50 came out at 64 nM.

Regarding `CCOC(=O)/C=C/[C@H](CCC(N)=O)NC(=O)[C@H](Cc1ccccc1)NC(=O)c1ccc(-c2cccc3ccccc23)[nH]1` [Compound 3], in data set [1], the kinact/KI came out at 30800 M⁻¹ s⁻¹. Moreover, the CC50 at 2 days in data set [2] is > 10000 nM. Moreover, the concentration giving a half-maximal response (EC50) with HRV-14 worked out at 109 nM.

As for `CCOC(=O)/C=C/[C@H](CCC(N)=O)NC(=O)[C@H](Cc1ccccc1)NC(=O)c1ccc(-c2cc(Cl)ccc2OC)[nH]1` [Compound 4, 6-Carbamoyl-4S-(2S-{[5-(5-chloro-2-methoxy-phenyl)-1H-pyrrole-2-carbonyl]amino}-3-phenyl-propionylamino)-hex-2(trans)-enoic acid ethyl ester], the kinact/KI in data set [1] amounted to 5860 M⁻¹ s⁻¹.

As for `CCOC(=O)/C=C/[C@H](CCC(N)=O)NC(=O)[C@H](Cc1ccccc1)NC(=O)c1ccc(-c2cncc3ccccc23)[nH]1` [Compound 5, 6-Carbamoyl-4S-{2S-[(5-isoquinolin-4-yl-1H-pyrrole-2-carbonyl)-amino]-3-phenyl-propionylamino}-hex-2(trans)-enoic acid ethyl ester], the kinact/KI in data set [1] amounted to 12700 M⁻¹ s⁻¹. In data set [2], the 50% cytotoxic concentration (CC50) at 2 days was > 10000 nM. Also, it took 1100 nM to reach a half-maximal effect in the data set on HRV-14 (EC50).

For the compound `CCOC(=O)/C=C/[C@H](CCC(N)=O)NC(=O)[C@H](Cc1ccccc1)NC(=O)c1ccc(-c2cccc(C(C)C)c2)[nH]1` [Compound 6, 6-Carbamoyl-4S-(2S-{[5-(3-isopropyl-phenyl)-1H-pyrrole-2-carbonyl]-amino}-3-phenyl-propionylamino)-hex-2(trans)-enoic acid ethyl ester], in data set [1], the kinact/KI turned out to be 2130 M⁻¹ s⁻¹. Also, the CC50 at 2 days in data set [2] was > 10000 nM. The same compound registered an EC50 in the data set with HRV-14 of 1420 nM.

As to `CCOC(=O)/C=C/[C@H](CCC(N)=O)NC(=O)[C@H](Cc1ccccc1)NC(=O)c1ccc(-c2cc(OC)ccc2OC)[nH]1` [Compound 7, 6-Carbamoyl-4S-(2S-{[5-(2,5-dimethoxy-phenyl)-1H-pyrrole-2-carbonyl]-amino}-3-phenyl-propionylamino)-hex-2-enoic acid ethyl ester], the kinact/KI in data set [1] was determined as 5200 M⁻¹ s⁻¹. Also, the CC50 at 2 days in data set [2] was > 10000 nM. Besides, the half-maximal effective concentration (EC50) in the data set on HRV-14 came to 300 nM.

Regarding `CCOC(=O)/C=C/[C@H](CCC(N)=O)NC(=O)[C@H](Cc1ccccc1)NC(=O)c1ccc(-c2cccnc2)[nH]1` [Compound 8, 6-Carbamoyl-4S-{3-phenyl-2S-[(5-pyridin-3-yl-1H-pyrrole-2-carbonyl)-amino]-propionylamino}-hex-2(trans)-enoic acid ethyl ester], the kinact/KI in data set [1] came out at 1300 M⁻¹ s⁻¹. Further, in data set [2], the 50% cytotoxic concentration (CC50) at 2 days was > 10000 nM. Also, the response with HRV-14 was half-maximal at 4920 nM (EC50).

In the case of `CCOC(=O)/C=C/[C@H](CCC(N)=O)NC(=O)[C@H](Cc1ccccc1)NC(=O)c1ccc(-c2ccccc2C)[nH]1` [Compound 9, 6-Carbamoyl-4S-{3-phenyl-2S-[(5-o-tolyl-1H-pyrrole-2-carbonyl)-amino]-propionylamino}-hex-2(trans)-enoic acid ethyl ester], the kinact/KI in data set [1] worked out at 12600 M⁻¹ s⁻¹.

With `CCOC(=O)/C=C/[C@H](CCC(N)=O)NC(=O)[C@H](Cc1ccccc1)NC(=O)c1ccc(-c2ccccc2)[nH]1` [Compound 10, 6-Carbamoyl-4S-{3-phenyl-2S-[(5-phenyl-1H-pyrrole-2-carbonyl)-amino]-propionylamino}-hex-2(trans)-enoic acid ethyl ester], in data set [1], the kinact/KI turned out to be 2370 M⁻¹ s⁻¹.

As for `CCOC(=O)/C=C/[C@H](CCC(N)=O)NC(=O)[C@H](Cc1ccccc1)NC(=O)c1ccc(-c2ccccc2OC)[nH]1` [Compound 11, 6-Carbamoyl-4S-(2S-{[5-(2-methoxy-phenyl)-1H-pyrrole-2-carbonyl]-amino}-3-phenyl-propionylamino)-hex-2(trans)-enoic acid ethyl ester], the kinact/KI in data set [1] is 5000 M⁻¹ s⁻¹. Moreover, in data set [2], the CC50 at 2 days was > 10000 nM. Moreover, the EC50 with HRV-14 worked out at 646 nM.

On to `CCOC(=O)/C=C/[C@H](CCC(N)=O)NC(=O)[C@H](Cc1ccccc1)NC(=O)c1ccc(-c2cc(C)no2)[nH]1` [Compound 21, 6-Carbamoyl-4S-(2S-{[5-(3-methyl-isoxazol-5-yl)-1H-pyrrole-2-carbonyl]-amino}-3-phenyl-propionylamino)-hex-2(trans)-enoic acid ethyl ester], for which the kinact/KI in data set [1] stood at 1380 M⁻¹ s⁻¹.

Turning to `O=C1OCC/C1=C\[C@H](C[C@@H]1CCNC1=O)NC(=O)C(CC(=O)c1ccc(-c2ccccc2)[nH]1)Cc1ccc(F)cc1` (stereo partly drawn) [Compound 31, 2-(R,S)-(4-Fluorobenzyl)-4-oxo-N-[2-(2-oxo-dihydro-furan-3-ylidine)-1S-(2-oxo-pyrrolidin-3S-ylmethyl)-ethyl]-4-(5-phenyl-1H-pyrrol-2-yl)-butyramide], in data set [1], the kinact/KI was 900 M⁻¹ s⁻¹.

Take `O=C1OCC/C1=C\[C@H](C[C@@H]1CCNC1=O)NC(=O)[C@H](CC(=O)c1ccc(-c2cccc3ccccc23)[nH]1)Cc1ccc(F)cc1` [Compound 32, 2-(R,S)-(4-Fluorobenzyl)-4-(5-naphthalen-1-yl-1H-pyrrol-2-yl)-4-oxo-N-[2-(2-oxo-dihydro-furan-3-ylidine)-1S-(2-oxo-pyrrolidin-3S-ylmethyl)-ethyl]-butyramide]: in data set [1], the kinact/KI is 8300 M⁻¹ s⁻¹.

As for `O=C1OCC/C1=C\[C@H](C[C@@H]1CCNC1=O)NC(=O)C(CC(=O)c1ccc[nH]1)Cc1ccc(F)cc1` (stereo partly drawn) [Compound 34, 2-(R,S)-(4-Fluorobenzyl)-4-oxo-N-[2-(2-oxo-dihydro-furan-3-ylidine)-1S-(2-oxo-pyrrolidin-3S-ylmethyl)-ethyl]-4-(1H-pyrrol-2-yl)-butyramide], the kinact/KI in data set [1] amounted to 520 M⁻¹ s⁻¹.

As for `CCOC(=O)/C=C/[C@H](C[C@@H]1CCNC1=O)NC(=O)[C@H](Cc1ccc(F)cc1)NC(=O)c1cc2ccccc2[nH]1` [Compound 42, Ethyl-3-{(Indole-2-carboxylic acid)-L-(4-F-Phe)-L-[(S)-Pyrrol-Ala]}-E-Propenoate], the kinact/KI in data set [1] came out at 42 M⁻¹ s⁻¹.

Take `CCOC(=O)/C=C/[C@H](C[C@@H]1CCNC1=O)NC(=O)CCC(C)=O` [Compound 43, 4S-(4-oxo-pentanoylamino)-5-(2-oxo-pyrrolidin-3S-yl)-pent-2-enoic acid ethyl ester]: the kinact/KI in data set [1] was 85 M⁻¹ s⁻¹.

As to `CCOC(=O)/C=C/[C@H](C[C@@H]1CCNC1=O)NC(=O)CCC(=O)c1ccccc1` [Compound 44, 4S-(4-oxo-4-phenyl-butyrylamino)-5-(2-oxo-pyrrolidin-3S-yl)-pent-2-enoic acid ethyl ester], the kinact/KI in data set [1] worked out at 1030 M⁻¹ s⁻¹.

Consider `CCOC(=O)/C=C/[C@H](C[C@@H]1CCNC1=O)NC(=O)CCC(=O)c1cccc2ccccc12` [Compound 45, 4-S-(4-Naphthalen-1-yl-4-oxo-butyrylamino)-5-(2-oxo-pyrrolidin-3S-yl)-pent-2-enoic acid ethyl ester], for which the kinact/KI in data set [1] is 629 M⁻¹ s⁻¹.

The term CC50 denotes the concentration at which the toxic effect on the cells reaches its halfway point. A word on the EC50: it is the concentration giving half of the maximal effect.
